Values quoted from earlier work, collected in US20240042038A1, “FORMULATIONS OF CABAZITAXEL” (Zhuhai Beihai Biotech Co., Ltd., priority 2020, published 2024).

solubility in alcohol: soluble
solubility in water: practically insoluble
Structure (SMILES): CO[C@H]1C(=O)[C@]2(C)[C@@H](OC)C[C@H]3OC[C@@]3(OC(C)=O)[C@H]2[C@H](OC(=O)c2ccccc2)[C@]2(O)C[C@H](OC(=O)[C@H](O)[C@@H](NC(=O)OC(C)(C)C)c3ccccc3)C(C)=C1C2(C)C [Cabazitaxel, cabazitaxel]
